Molecules are shown by their SMILES.

Experimental findings from US8920789B2, “Use of polymer D-lactic acid (PDLA) or equivalents thereof to inhibit growth of cancer cells and diagnose cancers” (The United States of America as represented by the …, priority 2011, dated 2014) are described below.

Experiment [1] is described as follows: Interference with l-lactate measurement in saline (L-Lactate Accuvin test strips). Particulars: d-lactic acid (0.05 mg) + l-lactic acid (0.06 mg). The procedure:
Forty mg of d-lactic acid (Sigma-Aldrich, St. Louis, Mo.; catalog no. L0625) was polymerized in a microwave oven according to the method of Pandey and Aswath (J Biomater Sci Polym Ed. 2009; 20(1):33-48). Briefly, d-lactic acid was transferred to 2 ml Reacti-Vials (Pierce Chemical Co., Rockford, Ill.) and the polymerization was carried out vented in a GE Spacemaker Model JVM 1650WH05 (Serial #900524B; manufactured April 2006) with an RF output frequency of 2450 MHz in the absence of any added solvent or catalyst. Polymerization was carried out starting at Power 1 setting on the microwave and weighing at 30 second intervals. […] Weight loss was from water during polymer esterification and dehydration. During the course of the microwave process, d-lactic acid crystals undergo a state change from a solid to a liquid and then to a gel at the end of the process. Similar procedure was used to produce PLLA with l-lactic acid.
[…] Measurement of l-lactate with L-Lactate Accuvin Test strips (Accuvin LLC, Napa, Ca), using stereospecific lactate dehydrogenase and a tetrazolium color indicator, measured less l-lactate (interference) in the experimental sample as evidenced by colorimetric determination. Experimental sample vs, control measured 10 mg/L vs, 50 mg/L of l-lactate. Other relevant tests using similar methodology and D-Lactate Accuvin Test strips are as follows:

Experiment [2] is described as follows: Interference with d-lactate measurement in saline (D-Lactate Accuvin test strips). Particulars: similar methodology.

As for `C[C@@H](O)C(=O)O` [d-lactic acid], the l-lactate test strip in experiment [1] came out at 50 mg/L.
For `C[C@H](O)C(=O)O` [l-lactic acid], the “Interference with lactate measurement (in words)” value in experiment [2] is listed as “No interference”.
